According to patent publication US20220213030A1, “AMINOGUANIDINE HYDRAZONES AS RETROMER STABILIZERS USEFUL FOR TREATING NEUROLOGICAL DISEASES” (OSPEDALE SAN RAFFAELE SRL, priority 2019, published 2022):

Tests used:
LC3 = assay: pHfluorin-LC3 autophagy assay in Neuro2a clone 7B11; format: cell-based, mouse; settings: 48 hours
Protocol: Besides increasing the functionality of lysosomes we hypothesised that compound 2a could also enhance the autophagy system. Therefore we used a pHfluorin-LC3-based assay to monitor the autophagy process in living Neuro2a cells. We have established in our laboratory a Neuro2a stable cell clone (7B11) that expresses the Microtubule-associated protein 1A/1B-light chain 3 (LC3) coupled with the ph-sensitive GFP/phlourin.
Neuro2a-7B11 cells were incubated with increasing concentrations of compound 2a (0.1-100 μM) as well as with the control molecules Bafilomycin Al and Torin-1. After 48 hours the GFP/phluorin signal, which is ph-sensitive, was measured by flow cytometry and fold changes calculated over untreated cells.
Autophagy assay were done using a stable Neuro2a cell clone expressing the pHluorin-mKate2-tagged human LC3 plasmids, Cell clones were generated according our published methods (Mazzocchi 2016). Upon transfection, cells were selected by 400 μg/mL G418 Disulfate Salt Solution (Sigma-Aldrich, St. Louis, Mo.) and further cloned by limiting dilution. […] Neuro2a 7B11 cells were treated with Compound 2a (0.1-100 μM) for 48 hours then MFI levels of the pHfluorin were measured in living cells by flow cytometry.

[1] = tested on: Vps35, Vps26 and Vps29 mRNA; assay: Real time PCR of CRC genes in Neuro2a; format: cell-based, mouse; settings: 10 μM, 48 hours
Protocol: (§1) Compound 2a increases the stability of the retromer complex in vitro. We further validated this concept by measuring VPS35 degradation rates by a cycloheximide (CHX) chase assay. Neuro2a cells received vehicle or lead 2a (10 μM) for 24 hours, then CHX was added to the medium, and VPS35 levels were measured by western blot. […] As is the case with R55 (Mecozzi, Berman et al. 2014), compound 2a should not influence the transcription levels of CRC genes in Neuro2a cells.
Lumbar spinal tracts dissected from saline perfused mice or Neuro2a cells were lysed to extract total RNAs using the RNeasy Mini Kit (Qiagen) according to the manufacturer's recommendations, including DNase (Promega) digestion. We synthetized the cDNA using ThermoScript RT-PCR System (Invitrogen) and Random Hexamer (Invitrogen), according to the manufacturer's instructions. The LightCycler 480 System (Roche) and LightCycler 480 SYBR Green I Master Mix (Roche) were used for real-time PCR experiments. Normalization was obtained using the housekeeping gene Histone H3
(H3 F: 5′-[…]-3′ H3 R: 5′-[…]-3′). The following specific primers were used for gene expression analysis: […]

VPS35 [2] = target: T1, VPS35 (Mus musculus, UniProt Q9EQH3+Q9QZ88); assay: VPS35 levels in spinal cord extracts of C57BL6J mice by western blot; format: in vivo; design: Lumbar spinal cords were dissected from saline perfused mice and rapidly homogenized; from tissue; host or cells: lumbar spinal cord of mice; settings: 10 mg/kg daily intraperitoneal for 7 days
Protocol: We next asked whether the compound 2a can cross the blood brain barrier (BBB) of the brain. We run a pharmacokinetic assay on C57BL6J mice that received daily intraperitoneal injections of compound 2a (10 mg/Kg/day). Mice were sacrificed after 1, 7, 15 and 30 days saline perfused to avoid the CNS contamination of compounds contained in blood circulation and brains used for the determination of compound 2a levels by mass spectrometry. […] We next investigated in vivo if the retromer stabilization occurs in response to Compound 2a treatment. We intraperitoneally injected R55 and Compound 2a in adult C57BL6J mice as above described. After one week, mice were sacrificed, proteins extracts were assayed by western blot.
Lumbar spinal cords were dissected from saline perfused mice and rapidly homogenized in the following lysis buffer: Tris-HCl 10 mM pH 8, EDTA pH 8 1 mM, NaCl 100 mM, NP40 1% and protease inhibitor cocktail (Sigma). Protein extracts were obtained using a tight-fitting glass Potter tissue grinder (1 ml; Wheaton) and then sonicated at a frequency of 20 kHz (10 times-1s). […] Protein concentrations were measured by BCA protein assay kit (Thermofisher) according to the manufacturer's recommendations. […] Quantifications were done using the Image Lab 6.0.1 software (Bio-Rad).

VPS35 [3] = target: T1, VPS35; assay: Cycloheximide (CHX) chase assay of VPS35 degradation in Neuro2a; format: cell-based; design: endogenous in cells; host or cells: Neuro2a; settings: 10 μM for 24 hours, then CHX 10 μg/mL up to 8 h
Protocol: as §1
Cycloheximide (CHX) assay was done on Neuro2a cells seeded in 6-well plates and incubated with compound 2a (10 μM) or vehicle for 24 hours. We next added CHX (Sigma) at 10 μg/mL and cells were collected at 0, 2, 4 and 8 hours for the time-course assay of VPS35 levels.

## N=C(N)NN=Cc1cccc(C=NNC(=N)N)c1 [Compound 2a, 1,3-Bis-amino guanidine phenyl hydrazone]
LC3; 0.1 and 1μM
  GFP/phluorin signals (fold changes over untreated cells): did not change
LC3; 10 and 100 μM
  GFP/phluorin fluorescence levels (fold changes over untreated cells): significant reduction of fluorescence levels
[1]
  mRNAs levels of Vps35, Vps26 and Vps29: did not change
VPS35 [2]
  VPS35 levels in SC extracts (ratio versus vehicle-treated mice): ≈ 1.7
VPS35 [3]
  VPS35 degradation after CHX: protected VPS35 from degradation
